Experiments:
Test in all cases: Bliss excess, mean over the matrix (fraction); higher = more synergy
[1] = test system: SK-MG-1 (Low Grade Glioma)
Procedure, shortened: (§1)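 Cell lines grown in DMEM/F12 or RPMI with 10% FBS were plated in 1536-well plates and held 24 hours at 37°C, 5% CO2 before 72 hours of exposure to two-drug dose matrices, with DMSO typically at 0.2%. CellTiter-Glo 2.0 luminescence gave viability, which was converted to inhibition. Vehicle wells were set to 0 and blank wells to 1. Combination Emax is the second-highest inhibition in the matrix, and Bliss excess is the observed combination effect minus the expected EA + EB − EA·EB, where EA and EB are the single-agent effects.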

A498 (Kidney Carcinoma) = test system: A498 (Kidney Carcinoma)
Procedure, shortened: as §1

[2] = test system: BICR22 (Oral Cavity Carcinoma)
Procedure, shortened: as §1

[3] = test system: SISO (Cervical Carcinoma)
Procedure, shortened: as §1

8-MG-BA (Glioblastoma) = test system: 8-MG-BA (Glioblastoma)
Procedure, shortened: as §1

[4] = test system: JSC-1 (B-Cell Non-Hodgkin's Lymphoma)
Procedure, shortened: as §1

[5] = test system: NCI-H2141 (Small Cell Lung Carcinoma)
Procedure, shortened: as §1

[6] = test system: OS-RC-2 (Kidney Carcinoma)
Procedure, shortened: as §1

[7] = test system: NCI-H1650 (Lung Adenocarcinoma)
Procedure, shortened: as §1

LN-405 (Glioblastoma) = test system: LN-405 (Glioblastoma)
Procedure, shortened: as §1

NCI-H2591 (Mesothelioma) = test system: NCI-H2591 (Mesothelioma)
Procedure, shortened: as §1

[8] = test system: KARPAS-422 (B-Cell Non-Hodgkin's Lymphoma)
Procedure, shortened: as §1

[9] = test system: SK-MES-1 (Squamous Cell Lung Carcinoma)
Procedure, shortened: as §1

[10] = test system: CAL-29 (Bladder Carcinoma)
Procedure, shortened: as §1

[11] = test system: ONS-76 (Other Solid Carcinomas)
Procedure, shortened: as §1

ARH-77 (Non-Cancerous) = test system: ARH-77 (Non-Cancerous)
Procedure, shortened: as §1

U-2-OS (Osteosarcoma) = test system: U-2-OS (Osteosarcoma)
Procedure, shortened: as §1

FU97 (Gastric Carcinoma) = test system: FU97 (Gastric Carcinoma)
Procedure, shortened: as §1

IGR-37 (Melanoma) = test system: IGR-37 (Melanoma)
Procedure, shortened: as §1

[12] = test system: HCC1954 (Breast Carcinoma)
Procedure, shortened: as §1

| Compound | Bliss excess [1] | Bliss excess (A498 (Kidney Carcinoma)) | Bliss excess [2] | Bliss excess [3] | Bliss excess (8-MG-BA (Glioblastoma)) | Bliss excess [4] | Bliss excess [5] | Bliss excess [6] | Bliss excess [7] | Bliss excess (LN-405 (Glioblastoma)) | Bliss excess (NCI-H2591 (Mesothelioma)) | Bliss excess [8] | Bliss excess [9] | Bliss excess [10] | Bliss excess [11] | Bliss excess (ARH-77 (Non-Cancerous)) | Bliss excess (U-2-OS (Osteosarcoma)) | Bliss excess (FU97 (Gastric Carcinoma)) | Bliss excess (IGR-37 (Melanoma)) | Bliss excess [12] |
| --- | --- | --- | --- | --- | --- | --- | --- | --- | --- | --- | --- | --- | --- | --- | --- | --- | --- | --- | --- | --- |
| COc1nnc2ccc(N3CCC(c4ccc(OCCN5CCN(C)C(=O)[C@H]5C)cc4)CC3)nn12 [AZD5153] + CC1(C)CCC(CN2CCN(c3ccc(C(=O)NS(=O)(=O)c4ccc(NCC5CCOCC5)c([N+](=O)[O-])c4)c(Oc4cnc5[nH]ccc5c4)c3)CC2)=C(c2ccc(Cl)cc2)C1 [Venetoclax] (first compound max 1 µM, 7x7, partner max 1 µM) | -0.0571 | -0.0895 | -0.0613 | -0.0335 | -0.0116 | -0.0724 | 0.0085 | -0.0584 | -0.0349 | -0.0861 | -0.0688 | -0.032 | -0.0349 | -0.103 | -0.0428 | -0.0033 | -0.0424 | -0.0452 | -0.0171 | -0.0391 |
| COc1nnc2ccc(N3CCC(c4ccc(OCCN5CCN(C)C(=O)[C@H]5C)cc4)CC3)nn12 [AZD5153] + CCN(CCO)CCCOc1ccc2c(Nc3cc(CC(=O)Nc4cccc(F)c4)[nH]n3)ncnc2c1 [AZD2811] (first compound max 1 µM, 7x7, partner max 1 µM) | -0.0568 | -0.0453 | -0.118 | 0.0112 | 0.0121 | 0.0038 | 0.0226 | -0.0473 | -0.0868 | -0.0761 | -0.0181 | -0.0472 | -0.0546 | 0.0084 | -0.0124 | -0.0471 | -0.0044 | -0.0048 | 0.0031 | -0.011 |
| COc1nnc2ccc(N3CCC(c4ccc(OCCN5CCN(C)C(=O)[C@H]5C)cc4)CC3)nn12 [AZD5153] + C[C@@H]1COCCN1C2=NC(=NC(=C2)C3(CC3)[S@](=N)(=O)C)C4=C5C=CNC5=NC=C4 [AZD6738] (first compound max 1 µM, 7x7, partner max 10 µM) | -0.0065 | -0.0563 | -0.116 | 0.008 | -0.0849 | -0.067 | 0.043 | 0.0699 | 0.0238 | -0.0235 | 0.0634 | -0.0759 | 0.0093 | 0.0219 | -0.0698 | -0.0293 | 0.0409 | 0.0043 | -0.0149 | 0.0323 |
| COc1nnc2ccc(N3CCC(c4ccc(OCCN5CCN(C)C(=O)[C@H]5C)cc4)CC3)nn12 [AZD5153] + Cc1c2c(nn1C)CSCc1cc(n(C)n1)CSc1cc(c3ccccc3c1)OCCCc1c(C(=O)O)n(C)c3c-2c(Cl)ccc13 [AZD5991] (first compound max 1 µM, 7x7, partner max 1 µM) | -0.0383 | -0.0226 | -0.0013 | 0.0698 | -0.0367 | -0.0542 | 0.0096 | -0.0106 | -0.0082 | -0.0084 | -0.0657 | -0.0432 | -0.0084 | -0.0162 | -0.0081 | -0.04 | 0.0074 | 0.0934 | 0.0608 | 0.0771 |
| COc1nnc2ccc(N3CCC(c4ccc(OCCN5CCN(C)C(=O)[C@H]5C)cc4)CC3)nn12 [AZD5153] + Cn1cnc2c(F)c(Nc3ccc(Br)cc3Cl)c(C(=O)NOCCO)cc21 [Selumetinib] (first compound max 1 µM, 7x7, partner max 10 µM) | -0.0443 | 0.0016 | 0.0497 | -0.008 | -0.007 | -0.0165 | -0.0277 | -0.0235 | -0.0155 | -0.0171 | -0.0065 | -0.0311 | -0.0219 | 0.0393 | -0.0127 | -0.0251 | -0.0291 | -0.0254 | 0.0624 | -0.0118 |
| Cc1c2c(nn1C)CSCc1cc(n(C)n1)CSc1cc(c3ccccc3c1)OCCCc1c(C(=O)O)n(C)c3c-2c(Cl)ccc13 [AZD5991] + C=CCn1c(=O)c2cnc(Nc3ccc(N4CCN(C)CC4)cc3)nc2n1-c1cccc(C(C)(C)O)n1 [AZD1775] (first compound max 1 µM, partner max 1 µM) | 0.0333 | 0.0231 | -0.0107 | -0.0417 | -0.0123 | -0.0042 | -0.0145 | -0.0046 | 0.0047 | 0.0077 | 0.0396 | -0.0192 | -0.0183 | 0.0878 | -0.0214 | -0.0418 | 0.0183 | 0.0503 | -0.0015 | 0.0435 |
| Cc1c2c(nn1C)CSCc1cc(n(C)n1)CSc1cc(c3ccccc3c1)OCCCc1c(C(=O)O)n(C)c3c-2c(Cl)ccc13 [AZD5991] + CC1(C)CCC(CN2CCN(c3ccc(C(=O)NS(=O)(=O)c4ccc(NCC5CCOCC5)c([N+](=O)[O-])c4)c(Oc4cnc5[nH]ccc5c4)c3)CC2)=C(c2ccc(Cl)cc2)C1 [Venetoclax] (first compound max 1 µM, 7x7, partner max 1 µM) | -0.0221 | -0.108 | 0.0003 | -0.0181 | 0.048 | 0.0155 | 0.107 | -0.0686 | -0.0246 | 0.0082 | -0.0252 | 0.205 | -0.0302 | 0.0101 | -0.0214 | 0.0087 | -0.0011 | -0.0525 | -0.0167 | 0.0401 |
| Cc1c2c(nn1C)CSCc1cc(n(C)n1)CSc1cc(c3ccccc3c1)OCCCc1c(C(=O)O)n(C)c3c-2c(Cl)ccc13 [AZD5991] + CN(C)CCCOc1ccc(-c2ccc3ncc4c(c3c2)n(C2CCOCC2)c(=O)n4C)cn1 [AZD0156] (first compound max 1 µM, 7x7, partner max 1 µM) | 0.0058 | -0.0274 | 0.016 | 0.0222 | 0.0044 | -0.0081 | -0.0146 | -0.0096 | -0.0398 | -0.0026 | 0.0036 | -0.0675 | -0.0029 | 0.0308 | -0.0291 | -0.0423 | 0.0132 | -0.058 | 0.0148 | 0.0247 |
| Cc1c2c(nn1C)CSCc1cc(n(C)n1)CSc1cc(c3ccccc3c1)OCCCc1c(C(=O)O)n(C)c3c-2c(Cl)ccc13 [AZD5991] + C[C@@H]1COCCN1C2=NC(=NC(=C2)C3(CC3)[S@](=N)(=O)C)C4=C5C=CNC5=NC=C4 [AZD6738] (first compound max 1 µM, 7x7, partner max 10 µM) | 0.0868 | 0.107 | 0.0224 | 0.0628 | 0.0326 | 0.018 | 0.0675 | 0.0211 | 0.0392 | 0.0493 | 0.023 | -0.0209 | -0.0119 | 0.0409 | -0.0017 | -0.014 | 0.0276 | -0.0064 | 0.124 | 0.0518 |
| Cc1c2c(nn1C)CSCc1cc(n(C)n1)CSc1cc(c3ccccc3c1)OCCCc1c(C(=O)O)n(C)c3c-2c(Cl)ccc13 [AZD5991] + C[C@@H](Nc1cc(F)cc(F)c1)c1cc(C(=O)N(C)C)cc2c(=O)cc(N3CCOCC3)oc12 [AZD8186] (first compound max 1 µM, 7x7, partner max 3 µM) | -0.0124 | -0.0252 | -0.0014 | -0.0067 | 0.0956 | -0.0289 | 0.0257 | -0.0226 | 0.0221 | 0.028 | -0.0164 | -0.0143 | 0.052 | 0.0096 | -0.0517 | -0.0404 | -0.0073 | 0.0594 | 0.038 | 0.031 |
| Cc1c2c(nn1C)CSCc1cc(n(C)n1)CSc1cc(c3ccccc3c1)OCCCc1c(C(=O)O)n(C)c3c-2c(Cl)ccc13 [AZD5991] + Cc1cc2ncnn2cc1Nc1ncc2c(n1)n(C1CCOCC1)c(=O)n2C [AZD7648] (first compound max 1 µM, 7x7, partner max 10 µM) | -0.0349 | -0.0249 | 0.0158 | -0.0221 | 0.0218 | -0.0499 | -0.0101 | -0.068 | -0.0408 | -0.0439 | -0.0106 | -0.0008 | -0.0471 | 0.014 | -0.0236 | -0.024 | -0.0318 | -0.044 | 0.0039 | -0.0095 |
| Cc1c2c(nn1C)CSCc1cc(n(C)n1)CSc1cc(c3ccccc3c1)OCCCc1c(C(=O)O)n(C)c3c-2c(Cl)ccc13 [AZD5991] + Cn1cnc2c(F)c(Nc3ccc(Br)cc3Cl)c(C(=O)NOCCO)cc21 [Selumetinib] (first compound max 1 µM, 7x7, partner max 3 µM) | 0.0044 | 0.0133 | 0.127 | -0.0134 | 0.098 | 0.027 | 0.0056 | -0.0557 | -0.0083 | 0.003 | -0.0127 | -0.0157 | 0.0132 | 0.0436 | 0.0319 | -0.0069 | 0.0109 | -0.0609 | 0.0044 | 0.0333 |
